Assay results published in PubChem BioAssay AID179 (DTP/NCI, 2004).
Calls of active or inactive are those of the source.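 How the source made its calls: active means compounds giving half or more protection of infected cells from virus-caused growth loss, again on retest; inactive means the rest.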

System: CEM cells HIV-1 protection, formazan growth assay
Test: NCI AIDS Antiviral Assay
Settings: for IC50: measured here: growth of uninfected CEM cells
Summary of the method: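 Human CEM cells, uninfected and HIV-1-infected, exposed to five drug concentrations; growth measured by soluble formazan assay and scored as percent protection from infection, with protecting compounds retested.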

SMILES | EC50 [µM] | IC50 [µM] | outcome
COc1cc(/C=C2/N=C(c3ccccc3)N(C3=NNC4(C(=O)N3)c3ccccc3-c3ccccc34)NC2=O)ccc1O | > 100 | 75.9 | 
COc1cc(C2c3cc4c(cc3OC3(O)COC(=O)C23)OCO4)cc(OC)c1OC (centres undefined) | > 200 | 105 | 
O=C1OC(OC/C(Br)=C(\Br)COC2OC(=O)C(Cl)=C2Cl)C(Cl)=C1Cl (centres undefined) | > 200 | 3.09 | 
NC(CSS(=O)(=O)O)=NCCCCN=C(N)CSS(=O)(=O)O | > 200 | > 200 | 
OCC1OC(n2cnc3c(I)ncnc32)C(O)C1O (centres undefined) |  |  | inactive
CCOC(=O)CC1(Cc2ccc(OCc3ccccc3)cc2)C(=O)OC(c2ccccc2)N1C(=O)c1ccccc1 (centres undefined) | > 200 | > 200 | 
CC(Oc1ccc(OCC2CCCCC2)cc1)C(=O)NCCO (centres undefined) | > 295 | 41.7 | 
CN1CCCC(CC2c3ccccc3Sc3ccccc32)C1 (centres undefined) | > 200 | 12.3 | 
Oc1c(CN2CCCC2)ccc2ccccc12 | > 200 | > 200 | 
COC(=O)NC(S(=O)(=O)O)S(=O)(=O)O |  |  | inactive
COC(=O)c1c(C)cccc1C1CN=NC12Cc1ccc(C)cc1C2=O (centres undefined) | > 72.4 | 41.7 | 
CCOP(=O)(/C=C/c1ccccc1)OCC |  |  | inactive
CC(=O)OCCCCn1cnc2nc(Nc3ccccc3)nc(Cl)c21 | > 200 | 135 | 
C/C(=N/NC(=O)c1ccncc1)C(F)(F)F |  |  | inactive
Cc1ccc(NC(=O)OCC(COc2ccc(Cl)cc2)OC(=O)Nc2ccc(C)cc2)cc1 (centres undefined) | > 15.5 | > 15.5 | 
Cc1cn(C2CC(Br)=NO2)c(=O)[nH]c1=O (centres undefined) | > 200 | 34.7 | 
COC(=O)c1ccccc1C#CC#Cc1ccccc1C(=O)OC | > 200 | 24 | 
O=C(OCc1ccccc1)N1CC(O)C2OC3OC4(CCCCC4)OC3C21 (centres undefined) | > 200 | 170 | 
O=c1[nH]nc(Cc2ccc(Cl)cc2)n1O | > 200 | > 200 | 
O=C(O)c1ccccc1O.OC1CCCC2CCC[N-]C12.[Cu+] (centres undefined) | > 200 | 0.603 | 
N#CC1CCCC2SC(F)(F)C(F)(F)C12 (centres undefined) | > 200 | 33.1 | 

SMILES | EC50 [µM] | IC50 [µM] | outcome
Cc1cc(C)cc(N(C2=NCCS2)C2=NCCS2)c1 | > 200 | > 200 | 
O=S(=O)(Nc1nc2ccccc2nc1N1CCCCCC1)c1ccccc1 | > 200 | 33.9 | 
CC(C)c1ccc(/C=C(\NC(=O)c2ccccc2)c2nc3ccccc3[nH]2)cc1 | > 49 | > 49 | 
CCC(NC(=O)c1ccccc1SC(=O)CCCC[n+]1ccccc1)C(N)=O (centres undefined) | > 3.8 |  | 
Cc1ccc(S(=O)(=O)N(CCNC(=O)c2cccc(O)c2O)c2cc3c4c(c2)Oc2cccc5c2C4(C)c2c(cccc2O3)O5)cc1 | > 200 | 10.7 | 
NC(=O)OCC(COc1ccc(Cl)cc1)OC(=O)c1cc([N+](=O)[O-])cc([N+](=O)[O-])c1 (centres undefined) | > 562 | 398 | 
CC1=C(C(=O)NCc2ccccc2)C(c2ccccc2C)C(C(=O)NCc2ccccc2)=C(C)N1 | > 21.4 | > 21.4 | 
NNc1nncc2n[nH]nc12 | > 200 | > 200 | 
COC(=O)[C@H]1[C@H](OC(=O)[C@@H](OC)c2ccccc2)ON2CC[C@@H](OC(=O)c3ccccc3)[C@H]12 | > 200 | 178 | 
CC1(c2nc3ccccc3[nH]2)CCC(C(=O)O)C(C)(C)O1 (centres undefined) | > 200 | 151 | 
O=C1OC2C(O)COC23OC(O)CCC13O (centres undefined) | > 200 | > 200 | 
Cn1c(=O)cc(CC#N)c2ccccc21 | > 200 | > 200 | 
CCN(CC)c1ccc(NC(=S)NN)cc1 | > 200 | 11.2 | 
Cc1nnc2n1N=C(c1ccc(-c3ccc([N+](=O)[O-])cc3)o1)CS2 | > 5.89 | > 5.89 | 
Cc1ccc2[nH]c3c(c2c1)C1CCC(C(C)(C)C)CC1C1C(=O)N(c2ccc4c(c2)OCO4)C(=O)C31 (centres undefined) | > 200 | 11.5 | 
CC(=O)[CH-]C(C)=O.[CH2-]C.[CH2-]C.[Tl+3] | > 501 | > 501 | 
O=C1C=C(NC(c2ccccc2)c2nc3ccccc3[nH]2)C(c2ccccc2)N1c1ccccc1 (centres undefined) |  |  | inactive
Cc1c(N)nc(C(CC(N)=O)NCC(N)C(N)=O)nc1C(=O)NC(C(=O)NC(C)C(O)C(C)C(=O)NC(C(=O)NCCc1nc(-c2nc(C(=O)NCCCNCCCCN)cs2)cs1)C(C)O)C(OC1OC(CO)C(O)C(O)C1OC1OC(CO)C(O)C(OC(N)=O)C1O)c1cnc[nH]1 (centres undefined) |  |  | inactive
Nc1c(N=Nc2ccc(CCc3ccc(N=Nc4cc(S(=O)(=O)O)c5cccc(S(=O)(=O)O)c5c4N)cc3S(=O)(=O)O)c(S(=O)(=O)O)c2)cc(S(=O)(=O)O)c2cccc(S(=O)(=O)O)c12 | 6.31 | 148 | 
O=C(CCCCCCCCC(=O)NCC1(c2ccccc2)CCN(Cc2ccccc2)CC1)NCC1(c2ccccc2)CCN(Cc2ccccc2)CC1 | > 200 | 102 | 
COc1ccc(-c2cn3c(nc4ccccc43)c(C)n2)cc1 | > 200 | > 200 | 

SMILES | EC50 [µM] | IC50 [µM] | outcome
Cc1nc(SCC(=O)Nc2ccccc2)c2sc(=S)n(-c3ccccc3)c2n1 | > 501 | > 501 | 
O=[N+]([O-])C(=C(c1ccccc1)c1ccccc1)[N+](=O)[O-] |  |  | inactive
CCOC(=O)CCc1c(C)c2ccc(O)cc2oc1=O | > 200 | > 200 | 
O=c1[nH]c2cc([N+](=O)[O-])ccc2nc1/C=C(\O)c1ccc([N+](=O)[O-])cc1 | > 200 | 186 | 
O=S(=O)(F)c1ccc(C[P+](c2ccccc2)(c2ccccc2)c2ccccc2)cc1 | > 200 | > 100 | 
CC1(O)N2CCCC1(c1ccccc1)CC2 (centres undefined) | > 1150 | 178 | 
Cc1cccc(NC(=S)Nc2ccccc2Cl)n1 | 141 | > 200 | 
O=S(=O)(c1ccccc1)C1CN(Cc2ccccc2)CCN(Cc2ccccc2)C1 |  |  | inactive
Cc1ccc2nnc(NS(=O)(=O)c3cc(C)c(Cl)cc3S)n2n1 | > 200 | > 200 | 
Cc1cc(-c2cc(C(C)(C)C)c(O)c(C(C)(C)C)c2)c(C)cc1-c1cc(C(C)(C)C)c(O)c(C(C)(C)C)c1 | > 100 | > 100 | 
COc1cc(C)c2c(c1)C=C1C(=O)C(=O)C(C(C)C)=C(O)C1=CC2 |  |  | inactive
O=C1CCC2COc3ccc(O)c1c32 (centres undefined) |  |  | inactive
COc1ccc(Nc2nc3ccccc3nc2-c2cccs2)cc1 | > 15.5 | > 15.5 | 
COc1cc2oc(-c3ccc4c(c3)OCO4)c(OC)c(=O)c2c(OC)c1O | > 200 | > 200 | 
CC(=O)OCC1OC(NC(=S)Nn2c(=O)[nH]c3ccccc3c2=O)C(OC(C)=O)C(OC(C)=O)C1OC(C)=O (centres undefined) | > 200 | > 200 | 
COC(=O)C1Cc2ccc(O)c(O)c2CN1 (centres undefined) | > 33.9 | 8.91 | 
c1ccc(OCC[P+](c2ccccc2)(c2ccccc2)c2ccccc2)cc1 | > 200 | 0.501 | 
Nc1ccc2c(c1)C(N)c1ccccc1-2 (centres undefined) | > 200 | 55 | 
Cc1ccc(S(=O)(=O)N2CCn3ncc(C#N)c32)cc1 | > 186 | > 186 | 
Cc1ccc(NC(=O)C(=O)Cc2cc[n+]([O-])cc2)cc1 | > 47.9 | > 47.9 | 
OC/C=C/c1ccc(O)c(O)c1 |  |  | inactive
